Results from patent US4317912A, “Tetracyclic indole derivatives” (Farmitalia Carlo Erba S.p.A., priority 1979, dated 1982).

Columns and labels:
[1] = system: spontaneously hypertensive male rats, strain MHS; assay: Anti-hypertensive activity in spontaneously hypertensive rats (MHS), blood pressure and heart rate measured at the tail; type: in vivo, rat (spontaneously hypertensive; details: MHS rats; for Change in BP, 1st day, 1 hr after dose / Change in HR, 1st day, 1 hr after dose / Change in BP, 1st day, 5 hrs after dose / Change in HR, 1st day, 5 hrs after dose / Change in BP, 4th day, 1 hr after dose / Change in HR, 4th day, 1 hr after dose / Change in BP, 4th day, 5 hrs after dose / Change in HR, 4th day, 5 hrs after dose: mean of 4 animals; for Activity compared with Hydralazine and α-methyl-DOPA: 5 mg/kg per os, vs Hydralazine (3 mg/kg per os) and α-methyl-DOPA; for Activity compared with Hydralazine and α-methyl-DOPA / Effect on blood pressure: 1st and 4th day; for Tolerance after repeated administration: four days, 355/1165 2 mg/kg, 355/1226 3 mg/kg, 355/1225 and 355/1229 5 mg/kg per os
Method: Four spontaneously hypertensive male rats, strains MHS, weighing 250-300 g for each group were used.
The animals were treated for four consecutive days. Drugs were administered by gastric gavage, suspended in 5% arabic gum (0.2 ml/100 g body weight). Blood pressure (BP) and heart rate (HR) were measured at the tail by BP Recorder W+W. Blood pressure and heart rate were measured on the 1st and 4th day of treatment 1 hour before and 1 and 5 hours after drug administration.
*Data of LD50 from the literature. In Tables 1 and 2 are reported
the results of the study of the activity of compounds 355/1165 and
355/1166 upon the BP and HR (measured indirectly by means of a tail cuff)
of spontaneous hypertensive rats, MHS strain (4 rats each group). The
compounds were given orally, once a day for 4 consecutive days.

[2] = Acute (orientative) oral toxicity in mice; details: mouse, in vivo
Source text: The male mice for each group were orally treated with drugs at different dose levels for the determination of orientative toxicity.

[3] = system: spontaneously hypertensive rats (Okamoto strain); assay: Anti-hypertensive activity in conscious spontaneously hypertensive rats (Okamoto), carotid artery catheter; type: in vivo, rat (spontaneously hypertensive; details: 3 mg/kg os, mean of 6 animals
Method: Blood pressure recordings were made in conscious hypertensive unrestrained rats weighing approximately 300 g, via a catheter cronically inserted into the left common carotid artery. Implantation of arterial cannula was made under sodium pentobarbital anesthesia (50 mg/kg i.p.). A 1 cm long incision was made through the previously shaved ventral surface of the neck and the tissues overlying the trachea parted by blunt dissection to reveal the carotid artery. The polyethylene catheter used was made with PE 50 tubing, previously filled with saline containing 250 I.U./ml heparin. The tip of the cannula was pushed at least 2 cm inside the vessel toward the heart. The cannula was then firmly tied and passed beneath the skin to emerge from a small incision in the back of the neck. During the postoperative period and before the start of each recording session, the cannula was flushed through daily with saline containing heparin (250 U.I./ml). The experiments were performed two days after surgery. Drugs were administered by gastric gavage.

Row | SMILES | Change in BP, 1st day, 1 hr after dose ([1]; 1 mg/kg os) [mmHg] | Change in HR, 1st day, 1 hr after dose ([1]; 1 mg/kg os) | Change in BP, 1st day, 5 hrs after dose ([1]; 1 mg/kg os) [mmHg] | Change in HR, 1st day, 5 hrs after dose ([1]; 1 mg/kg os) | Change in BP, 4th day, 1 hr after dose ([1]; 1 mg/kg os) | Change in HR, 4th day, 1 hr after dose ([1]; 1 mg/kg os) | Change in BP, 4th day, 5 hrs after dose ([1]; 1 mg/kg os) | Change in HR, 4th day, 5 hrs after dose ([1]; 1 mg/kg os) | Change in BP, 1st day, 1 hr after dose ([1]; 5 mg/kg os) [mmHg] | Change in HR, 1st day, 1 hr after dose ([1]; 5 mg/kg os) [b/min] | Change in BP, 1st day, 5 hrs after dose ([1]; 5 mg/kg os) [mmHg] | Change in HR, 1st day, 5 hrs after dose ([1]; 5 mg/kg os) [b/min] | Change in BP, 4th day, 1 hr after dose ([1]; 5 mg/kg os) [mmHg] | Change in HR, 4th day, 1 hr after dose ([1]; 5 mg/kg os) [b/min] | Change in BP, 4th day, 5 hrs after dose ([1]; 5 mg/kg os) [mmHg] | Change in HR, 4th day, 5 hrs after dose ([1]; 5 mg/kg os) [b/min] | Activity compared with Hydralazine and α-methyl-DOPA [1] | Effect on blood pressure ([1]; 1 and 5 mg/kg orally) | Tolerance after repeated administration [1] | LD50 at 168 h [2] [mg/kg] | also measured
1 | CN1CC(CCC#N)C2Cc3cccc4[nH]cc(c34)CC21 (stereo not drawn) [355/1225, Trans-5(10→9)abeo-6-methyl-ergoline-8β-propionitrile] | -28 | +5 b/min | -17 | -22 b/min | -34 mmHg | -40 b/min | -21 mmHg | -43 b/min | -67 | -32 | -42 | -4 | -34 | -55 | -21 | -59 | greater activity | reduces blood pressure in dose-dependent manner on both the 1st and 4th day of treatment | No tolerance occurs | 600 | Time of peak effect on blood pressure ([1]; 1 and 5 mg/kg orally): one hour after dosing
2 | CN1CC(CC(C#N)C(N)=O)C2=Cc3cccc4[nH]cc(c34)CC21 (stereo not drawn) [355/1229, 2-Cyano-3-[5(10→9)abeo-9,10-didehydro-6-methyl-ergoline-8β]-propionamide] | -26 | +25 b/min | -19 | -2 b/min | -21 mmHg | -18 b/min | – | -53 b/min | -26 | -40 | -20 | -35 | -36 | -50 | -45 | -55 | greater activity | both dosages reduce BP in a similar way on the 1st day, when during the 4th day the decrease of BP is dose-dependent | No tolerance occurs | 600 | –
3 | NNc1nncc2ccccc12 [Hydralazine, reference compound] | 0 | +20 b/min | -10 | +25 b/min | +7 mmHg | +30 b/min | +2 mmHg | +15 b/min | – | – | – | – | – | – | – | – | – | – | – | – | Change in BP, 1st day, 1 hr after dose ([1]; 3 mg/kg os): -43 mmHg; Change in HR, 1st day, 1 hr after dose ([1]; 3 mg/kg os): +31 b/min; Change in BP, 1st day, 5 hrs after dose ([1]; 3 mg/kg os): -29 mmHg; Change in HR, 1st day, 5 hrs after dose ([1]; 3 mg/kg os): +34 b/min; Change in BP, 4th day, 1 hr after dose ([1]; 3 mg/kg os): -15 mmHg; Change in HR, 4th day, 1 hr after dose ([1]; 3 mg/kg os): +18 b/min; Change in BP, 4th day, 5 hrs after dose ([1]; 3 mg/kg os): +5 mmHg; Change in HR, 4th day, 5 hrs after dose ([1]; 3 mg/kg os): +13 b/min; Effect on heart rate ([1]; oral, all doses treated (Table 2)): no effect on heart rate; Change in blood pressure after treatment, 30' ([3]; 30'): -25 mmHg; Change in heart rate after treatment, 30' ([3]; 30'): +50 b/min; Change in blood pressure after treatment, 60' ([3]; 60'): -33 mmHg; Change in heart rate after treatment, 60' ([3]; 60'): +21 b/min; Change in blood pressure after treatment, 120' ([3]; 120'): -40 mmHg; Change in heart rate after treatment, 120' ([3]; 120'): +52 b/min; Change in blood pressure after treatment, 240' ([3]; 240'): -29 mmHg; Change in heart rate after treatment, 240' ([3]; 240'): +3 b/min; Change in blood pressure after treatment, 360' ([3]; 360'): -7 mmHg; Change in heart rate after treatment, 360' ([3]; 360'): +3 b/min
